{"source": "patent US11407721B2", "about": "“CIS-morpholinone and other compounds as MDM2 inhibitors for the treatment of cancer” (AMGEN INC., priority 2013, dated 2022)", "key": {"[1]": {"target": "interaction between HDM2 and p53 (GST-hMDM2 (1-188) / biotinylated-p53 (1-83)) (Homo sapiens (Human), UniProt Q00987)", "sequence (Q00987 1-188)": "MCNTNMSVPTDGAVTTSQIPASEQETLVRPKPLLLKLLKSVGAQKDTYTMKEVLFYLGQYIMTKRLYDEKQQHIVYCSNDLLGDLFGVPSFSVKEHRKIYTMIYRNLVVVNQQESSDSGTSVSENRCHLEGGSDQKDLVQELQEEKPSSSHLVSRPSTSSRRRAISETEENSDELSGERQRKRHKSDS", "test": "HTRF2 Assay (improved HTRF assay)", "format": "binding"}, "[2]": {"target": "T1, interaction between HDM2 and p53 (GST-hMDM2 / biotinylated-p53) (Homo sapiens (Human), UniProt Q00987)", "T1 sequence (Q00987 1-188)": "as above", "settings": "read-out: HTRF3 IC50; HTRF1 conditions except 20 uL GST-hMDM2 incubated with 1.0 ul diluted compound"}, "[3]": {"target": "interaction between HDM2 and p53 (GST-hMDM2 aa 1-188 / biotinylated-p53 aa 1-83) (Homo sapiens (Human), UniProt Q00987)", "sequence (Q00987 1-188)": "as above"}, "[4]": {"target": "T1, interaction between HDM2 and p53 (GST-hMDM2 / biotinylated-p53)", "test": "biochemical"}, "[5]": {"settings": "0.2 nM GST-hMDM2 (1-188), 0.5 nM biotinylated-p53 (1-83), 100 mM KF, read-out: HTRF2 IC50"}}, "note": "Like-named read-outs stand apart in the source and are kept apart here.", "data": [{"molecule": "CN(C)C(=O)C[C@H]1O[C@H](c2cccc(Cl)c2)[C@H](c2ccc(Cl)cc2)N(CC2CC2)C1=O", "values": [{"measurement": "IC50", "setting": "[1]; [5]", "result": 7.56, "unit": "µM"}, {"measurement": "IC50", "setting": "[2]", "result": 2.78, "unit": "µM"}]}, {"molecule": "CS(=O)(=O)OCC[C@H]1O[C@H](c2cccc(Cl)c2)[C@H](c2ccc(Cl)cc2)N(CC2CC2)C1=O", "values": [{"measurement": "IC50", "setting": "[1]; [5]", "result": 4.81, "unit": "µM"}, {"measurement": "IC50", "setting": "[2]", "result": 6.86, "unit": "µM"}]}, {"molecule": "CCC[C@H](C(=O)N1CCN(CCC(=O)O)CC1)N1C(=O)CO[C@@H](c2ccc(Cl)cc2)[C@H]1c1ccc(Cl)cc1", "values": [{"measurement": "IC50", "setting": "[1]; [5]", "result": 3.6, "unit": "µM"}, {"measurement": "IC50", "setting": "[2]", "result": 4.59, "unit": "µM"}]}, {"molecule": "CN1C(=O)[C@@H](Cc2cccc(C(N)=O)c2)O[C@H](c2ccc(Cl)cc2)[C@@H]1c1ccc(Cl)cc1", "values": [{"measurement": "IC50", "setting": "[1]; [5]", "result": 7.39, "unit": "µM"}, {"measurement": "IC50", "setting": "[2]", "result": 12.4, "unit": "µM"}]}, {"molecule": "CN1C(=O)[C@@H](Cc2ccc(C(N)=O)cc2)O[C@H](c2ccc(Cl)cc2)[C@@H]1c1ccc(Cl)cc1", "values": [{"measurement": "IC50", "setting": "[1]; [5]", "result": 3.66, "unit": "µM"}, {"measurement": "IC50", "setting": "[2]", "result": 5.8, "unit": "µM"}]}, {"molecule": "CN1C(=O)CO[C@@H](c2ccc(Cl)cc2)[C@H]1c1ccc(Cl)cc1", "note": "(mixture of isomers) [(5R,6S)-5,6-Bis(4-chlorophenyl)-4-methylmorpholin-3-one and (5S,6R)-5,6-bis(4-chlorophenyl)-4-methylmorpholin-3-one]", "values": [{"measurement": "IC50", "setting": "[3]", "result": 11.8, "unit": "µM"}, {"measurement": "IC50", "setting": "[4]", "result": 38.6, "unit": "µM"}]}, {"molecule": "CCC[C@H](C(N)=O)N1C(=O)CO[C@@H](c2ccc(Cl)cc2)[C@H]1c1ccc(Cl)cc1", "note": "[(2R)-2-((2S,3R)-2,3-bis(4-chlorophenyl)-5-oxo-4-morpholinyl)pentanamide]", "values": [{"measurement": "IC50", "setting": "[4]", "result": 3.19, "unit": "µM"}, {"measurement": "IC50", "setting": "[1]; [5]", "result": 4.29, "unit": "µM"}]}, {"molecule": "CCC[C@H](COC(N)=O)N1C(=O)CO[C@@H](c2ccc(Cl)cc2)[C@H]1c1ccc(Cl)cc1", "note": "[(2R)-2-((2S,3R)-2,3-bis(4-chlorophenyl)-5-oxo-4-morpholinyl)pentyl carbamate]", "values": [{"measurement": "IC50", "setting": "[4]", "result": 3.72, "unit": "µM"}, {"measurement": "IC50", "setting": "[1]; [5]", "result": 3.61, "unit": "µM"}]}, {"molecule": "CCC[C@H](C(=O)O)N1C(=O)[C@H](Cc2ccc(C#N)c(F)c2)O[C@@H](c2ccc(Cl)cc2)[C@H]1c1ccc(Cl)cc1", "note": "[(2R)-2-((2S,3R,6S)-2,3-bis(4-chlorophenyl)-6-(4-cyano-3-fluorobenzyl)-5-oxo-4-morpholinyl)pentanoic acid]", "values": [{"measurement": "IC50", "setting": "[4]", "result": 0.443, "unit": "µM"}, {"measurement": "IC50", "setting": "[1]", "result": 0.539, "unit": "µM"}]}, {"molecule": "CCC[C@H](C(=O)O)N1C(=O)[C@H](Cc2ccc(C#N)cc2)O[C@@H](c2ccc(Cl)cc2)[C@H]1c1ccc(Cl)cc1", "note": "[(2R)-2-((2S,3R,6S)-2,3-bis(4-chlorophenyl)-6-(4-cyanobenzyl)-5-oxo-4-morpholinyl)pentanoic acid]", "values": [{"measurement": "IC50", "setting": "[4]", "result": 0.297, "unit": "µM"}, {"measurement": "IC50", "setting": "[1]", "result": 0.393, "unit": "µM"}]}, {"molecule": "C=CC[C@H]1O[C@H](c2ccc(Br)cc2)[C@H](c2ccc(Br)cc2)N(C)C1=O", "note": "[(2R,5S,6R)-5,6-bis(4-bromophenyl)-4-methyl-2-(2-propen-1-yl)-3-morpholinone]", "values": [{"measurement": "IC50", "setting": "[4]", "result": 23.7, "unit": "µM"}, {"measurement": "IC50", "setting": "[1]; [5]", "result": 25, "unit": "µM"}]}, {"molecule": "CN1C(=O)[C@@H](c2ccccc2)O[C@H](c2ccc(Br)cc2)[C@@H]1c1ccc(Br)cc1", "note": "[(2R,5S,6R)-5,6-bis(4-bromophenyl)-4-methyl-2-phenyl-3-morpholinone]", "values": [{"measurement": "IC50", "setting": "[4]", "result": 12.3, "unit": "µM"}, {"measurement": "IC50", "setting": "[1]; [5]", "result": 20, "unit": "µM"}]}, {"molecule": "C[C@@H]1O[C@@H](c2ccc(Br)cc2)[C@@H](c2ccc(Br)cc2)N(C)C1=O", "note": "[(2S,5R,6S)-5,6-bis(4-bromophenyl)-2,4-dimethyl-3-morpholinone]", "values": [{"measurement": "IC50", "setting": "[4]", "result": 23.2, "unit": "µM"}, {"measurement": "IC50", "setting": "[1]; [5]", "result": 22.7, "unit": "µM"}]}, {"molecule": "CCC[C@H](CN)N1C(=O)CO[C@@H](c2ccc(Cl)cc2)[C@H]1c1ccc(Cl)cc1", "note": "[(5R,6S)-4-((1R)-1-(aminomethyl)butyl)-5,6-bis(4-chlorophenyl)-3-morpholinone]", "values": [{"measurement": "IC50", "setting": "[4]", "result": 6.88, "unit": "µM"}, {"measurement": "IC50", "setting": "[1]; [5]", "result": 6.09, "unit": "µM"}]}, {"molecule": "O=C1CO[C@@H](c2ccc(Cl)cc2)[C@@H](c2ccc(Cl)cc2)N1c1cccnc1", "note": "[(5R,6S)-5,6-bis(4-chlorophenyl)-4-(3-pyridinyl)-3-morpholinone]", "values": [{"measurement": "IC50", "setting": "[4]", "result": 23.9, "unit": "µM"}, {"measurement": "IC50", "setting": "[1]; [5]", "result": 29.6, "unit": "µM"}]}, {"molecule": "O=C1CO[C@@H](c2ccc(Cl)cc2)[C@@H](c2ccc(Cl)cc2)N1c1ccncc1", "note": "[(5R,6S)-5,6-bis(4-chlorophenyl)-4-(4-pyridinyl)-3-morpholinone]", "values": [{"measurement": "IC50", "setting": "[4]", "result": 24.2, "unit": "µM"}, {"measurement": "IC50", "setting": "[1]; [5]", "result": 16.8, "unit": "µM"}]}, {"molecule": "O=C1CO[C@@H](c2ccc(Cl)cc2)[C@@H](c2ccc(Cl)cc2)N1c1ccccc1", "note": "[(5R,6S)-5,6-bis(4-chlorophenyl)-4-phenyl-3-morpholinone]", "values": [{"measurement": "IC50", "setting": "[4]", "result": "> 100", "unit": "µM"}, {"measurement": "IC50", "setting": "[1]; [5]", "result": 31.6, "unit": "µM"}]}, {"molecule": "CC(C)N1C(=O)CS(=O)(=O)[C@@H](c2cccc(Cl)c2)[C@H]1c1ccc(Cl)cc1", "note": "[(5R,6S)-6-(3-chlorophenyl)-5-(4-chlorophenyl)-4-(1-methylethyl)-3-thiomorpholinone 1,1-dioxide]", "values": [{"measurement": "IC50", "setting": "[3]", "result": 1.56, "unit": "µM"}]}, {"molecule": "O=C1CS(=O)(=O)[C@@H](c2cccc(Cl)c2)[C@@H](c2ccc(Cl)cc2)N1CC1CC1", "note": "[(5R,6S)-6-(3-chlorophenyl)-5-(4-chlorophenyl)-4-(cyclopropylmethyl)-3-thiomorpholinone 1,1-dioxide]", "values": [{"measurement": "IC50", "setting": "[3]", "result": 4.76, "unit": "µM"}, {"measurement": "IC50", "setting": "[1]; [5]", "result": 22.4, "unit": "µM"}]}, {"molecule": "O=C1CO[C@@H](c2cccc(Cl)c2)[C@@H](c2ccc(Cl)cc2)N1C1CCCC1", "note": "[(5R,6S)-6-(3-chlorophenyl)-5-(4-chlorophenyl)-4-cyclopentyl-3-morpholinone]", "values": [{"measurement": "IC50", "setting": "[4]", "result": 16.6, "unit": "µM"}, {"measurement": "IC50", "setting": "[1]; [5]", "result": 10, "unit": "µM"}]}, {"molecule": "CC(C)N1C(=O)CO[C@H](c2ccc(Br)cc2)[C@@H]1c1ccc(Br)cc1", "note": "[(5S,6R)-5,6-bis(4-bromophenyl)-4-(1-methylethyl)-3-morpholinone]", "values": [{"measurement": "IC50", "setting": "[4]", "result": 24.6, "unit": "µM"}, {"measurement": "IC50", "setting": "[1]; [5]", "result": "> 100", "unit": "µM"}]}, {"molecule": "CCC[C@H](c1nnn[nH]1)N1C(=O)[C@H](Cc2ccc(C#N)c(F)c2)O[C@@H](c2ccc(Cl)cc2)[C@H]1c1ccc(Cl)cc1", "note": "[Example 35, 4-(((2S,5R,6S)-4-((R)-1-(1H-Tetrazol-5-yl)butyl)-5,6-bis(4-chlorophenyl)-3-oxomorpholin-2-yl)methyl)-2-fluorobenzonitrile]", "values": [{"measurement": "IC50", "setting": "[1]; [5]", "result": 0.473, "unit": "µM"}, {"measurement": "IC50", "setting": "[2]", "result": 0.403, "unit": "µM"}]}, {"molecule": "CCC[C@H](C(=O)NCC(=O)O)N1C(=O)[C@H](Cc2ccc(C#N)c(F)c2)O[C@@H](c2ccc(Cl)cc2)[C@H]1c1ccc(Cl)cc1", "note": "[N-((2R)-2-((2S,3R,6S)-2,3-bis(4-chlorophenyl)-6-(4-cyano-3-fluorobenzyl)-5-oxo-4-morpholinyl)pentanoyl)glycine]", "values": [{"measurement": "IC50", "setting": "[4]", "result": 0.39, "unit": "µM"}, {"measurement": "IC50", "setting": "[1]", "result": 0.517, "unit": "µM"}]}, {"molecule": "(2R,5S,6R)-5,6-Bis(4-chlorophenyl)-4-methyl-2-(pyridin-4-ylmethyl)morpholin-3-one and (2S,5R,6S)-5,6-bis(4-chlorophenyl)-4-methyl-2-(pyridin-4-ylmethyl)morpholin-3-one [Example 41]", "values": [{"measurement": "IC50", "setting": "[1]; [5]", "result": 4.53, "unit": "µM"}, {"measurement": "IC50", "setting": "[2]", "result": 5.6, "unit": "µM"}]}]}
